# Test results reported in patent publication US7666867B2, “Heteroindanes: a new class of potent cannabimimetic ligands” (University of Connecticut, priority 2001, dated 2010).
# pKi: −log10 of the molar value. Where two headings read alike, the source gives them in different places.
# Experiments:
# CB1 receptor = target: T1, CB1 receptor (Rattus norvegicus, UniProt P20272); experiment: CB1 receptor binding assay, [3H]CP-55,940 displacement, rat forebrain membranes; conditions: for Ki: rat forebrain membranes, 0.8 nM [3H]CP-55,940, read-out: Ki (nM) CB1
# T1 construct: membranes were prepared from rat forebrain membranes; from tissue; host or cells: rat forebrain membranes
# Description: The inventive analogs were tested for CB2 receptor binding affinity and for CB1 receptor affinity (to determine selectivity for the CB2 receptor). As used herein, “binding affinity” is represented by the IC50 value which is the concentration of an analog required to occupy the 50% of the total number (Bmax) of the receptors. The lower the IC50 value the higher the binding affinity. […] For the CB1 receptor binding studies, membranes were prepared from rat forebrain membranes according to the procedure of P. R. Dodd et al, A Rapid Method for Preparing Synaptosomes: Comparison with Alternative Procedures, Brain Res., 107-118 (1981). The binding of the novel analogues to the CB1 cannabinold receptor was assessed as described in W. A. Devane et al, Determination and Characterization of a Cannabinoid Receptor in a Rat Brain, Mol. Pharmacol., 34, 605-613 (1988) and A. Charalambous et al, 5′-azido Δ^8− THC: A Novel Photoaffinity Label for the Cannabinoid Receptor, J. Med. Chem., 35, 3076-3079 (1992) with the following changes. The above articles are incorporated by reference herein.
# Membranes, previously frozen at −80° C., were thawed on ice. To the stirred suspension was added three volumes of TME (25 mM Tris-HCl buffer, 5 mM MgCl2 and 1 mM EDTA) at a pH 7.4. The suspension was incubated at 4° C. for 30 min. At the end of the incubation, the membranes were pelleted and washed three times with TME.
# (§1) The treated membranes were subsequently used in the binding assay described below. Approximately 30 μg of membranes were incubated in silanized 96-well microtiter plate with TME containing 0.1% essentially fatty acid-free bovine serum albumin (BSA), 0.8 nM [^3H] CP-55,940, and various concentrations of test materials in a final volume of […]. The assays were incubated for 1 hour at 30° C. and then immediately filtered using Packard Filtermate 196 harvester and Whatman GF/C filterplates and washed with wash buffer (TME) containing 0.5% BSA. Radioactivity was detected using MicroScint 20 scintillation cocktail added directly to the dried filterplates, and the filterplates were counted using a Packard Instruments Top-Count. Nonspecific binding was assessed using 100 nM CP-55,940. Data collected from three independent experiments performed with duplicate determinations was normalized between 100% and 0% specific binding for [^3H] CP-55,940, determined using buffer and 100 nM CP-55,940. The normalized data was analyzed using a 4-parameter nonlinear logistic equation to yield IC50 values. Data from at least two indeperident experiments performed in duplicate was used to calculate IC50 values which were converted to Ki values using the assumptions of Cheng et al, Relationship Between the Inhibition Constant (Ki) and the concentratiori of Inhibitor which causes 50% Inhibition (IC50) of an Enzymatic Reaction, Biochem. Pharmacol., 22, 3099-3102, (1973), which is incorporated by reference herein.
# CB2 receptor = target: T2, CB2 receptor (Mus musculus, UniProt P47936); experiment: CB2 receptor binding assay, [3H]CP-55,940 displacement, mouse spleen membranes
# T2 construct: membranes were prepared from frozen mouse spleen; from tissue; host or cells: frozen mouse spleen membranes
# Description: as §1
# For the CB2 receptor binding studies, membranes were prepared from frozen mouse spleen essentially according to the procedure of P. R. Dodd et al, A Rapid Method for Preparing Synaptosomes: Comparison with Alternative Procedures, Brain Res., 226, 107-118 (1981) which is incorporated by reference herein. Silanized centrifuge tubes were used throughout to minimize receptor loss due to adsorption. The CB2 binding assay was conducted in the same manner as for the CB1 binding assay. The binding affinities (Ki) were also expressed in nanomoles (nM).
# rats [1] = experiment: Peripheral antinociception, paw withdrawal latency to thermal stimulus; type: in vivo, rat; conditions: ipsilateral i.paw injection, measured 25 min after injection, FIG. 1 and 2
# Description: Using rats as test subjects, varied doses of some of the inventive compounds were injected subcutaneously in the dorsal surface of the paw (i.paw, 50 μl). Measurements were taken 25 min after i.paw injection. Assessment of antinociceptive action was made by evaluating the response latency to removal of the paw from a focused source of thermal stimulation, as described by T. P. Malan Jr., CB2 Cannabinoid Receptor-mediated Peridpheral Antinociception, Pain, 93, 239-245 (2001), the content of which is incorporated by reference herein. Rats were allowed to acclimate within Plexiglas enclosures on a clear glass plate maintained at 30° C. A radiant heat source (a high-intensity projector lamp) was focused onto the plantar surface of the hindpaw. Activation of the heat source activated a timer, which stopped when withdrawal of the paw was detected with a photodetector. A maximal cut-off of 40 seconds (s) was utilized to prevent tissue damage.
# Antinociception is expressed as the percent of the maximum possible effect (% MPE), using the formula: % MPE=(WL-CL)/(CO-CL), where WL is the withdrawal latency obtained experimentally, CL is the control (baseline) value before drug administration, and CO is the cut-off value (40 s). Dose-response curves were generated. Significance was defined as P<0.05.
# rats [2] = experiment: Locomotor activity, rate of beam crossings in photocell apparatus; type: in vivo, rat; conditions: intravenous; for effect on locomotor activity: early after administration, FIG. 3 and 4
# Description: Rats were injected with varied doses of either some of the inventive compounds or with WIN 55212-2, a known CB1/CB2 receptor agonist. The injected compounds were solubilized in DMSO:40% cyclodextrin (1:10) and intravenously administered.
# Locomotor activity was assessed by measuring the rate of beam crossings by rats in a photocell apparatus according to the procedure of M. Cosenza et al, Locomotor Activity and Occupancy of Brain Cannabinoid CB1 Receptors by the Antagonist/Inverse Agonist AM281, Synapse, 38, 477-482 (2000).
# T2 sequence (P47936 whole entry): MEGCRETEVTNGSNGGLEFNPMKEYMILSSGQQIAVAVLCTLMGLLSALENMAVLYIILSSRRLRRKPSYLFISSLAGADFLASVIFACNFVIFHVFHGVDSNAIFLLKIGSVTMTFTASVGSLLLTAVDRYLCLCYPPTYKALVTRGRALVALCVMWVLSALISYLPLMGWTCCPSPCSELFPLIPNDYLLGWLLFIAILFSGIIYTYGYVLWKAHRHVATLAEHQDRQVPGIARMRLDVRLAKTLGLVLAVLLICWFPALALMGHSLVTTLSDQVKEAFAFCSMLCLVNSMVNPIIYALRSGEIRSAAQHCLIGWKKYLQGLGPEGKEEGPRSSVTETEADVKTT
# T1 sequence (P20272 whole entry): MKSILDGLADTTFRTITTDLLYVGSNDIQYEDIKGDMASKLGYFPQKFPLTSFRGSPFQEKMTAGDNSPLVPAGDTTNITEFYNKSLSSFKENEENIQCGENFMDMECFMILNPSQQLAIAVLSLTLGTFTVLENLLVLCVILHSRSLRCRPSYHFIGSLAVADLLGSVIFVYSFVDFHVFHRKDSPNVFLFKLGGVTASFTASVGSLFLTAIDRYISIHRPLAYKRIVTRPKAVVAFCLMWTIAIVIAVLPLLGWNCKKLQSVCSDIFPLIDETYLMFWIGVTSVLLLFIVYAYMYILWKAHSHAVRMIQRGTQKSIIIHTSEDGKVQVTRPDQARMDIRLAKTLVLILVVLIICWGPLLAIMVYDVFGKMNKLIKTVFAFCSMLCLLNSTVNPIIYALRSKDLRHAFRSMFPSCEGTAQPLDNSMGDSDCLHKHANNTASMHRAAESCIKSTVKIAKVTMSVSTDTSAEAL
Structure (SMILES),pKi (CB1 receptor),pKi (CB2 receptor),Ki (CB1 receptor) [nM],antinociception to a thermal stimulus applied to the hindpaw (rats [1]),cannabinoid-like behaviour in the locomotor assay (rats [2]),effect on locomotor activity (rats [2])
O=C(Nc1cccc2ccccc12)c1nn(CCCCI)c2ccccc12 [compound 8],7.86,7.57,,,,
O=C(NC12CC3CC(CC(C3)C1)C2)c1nn(CCN2CCOCC2)c2ccccc12 [compound 1],8.16,9.83,,,,
CN(C)CCCn1nc(C(=O)Nc2cccc3ccccc23)c2ccccc21 [compound 9],,6.63,451,,,
O=C(NC12CC3CC(CC(C3)C1)C2)c1nn(CCCCCl)c2ccccc12 [compound 4],8.78,8.87,,,,
O=C(NC12CC3CC(CC(C3)C1)C2)c1nn(CCCCI)c2ccccc12 [compound 5],9.22,9.79,,,,
N#CCCCCn1nc(C(=O)NC23CC4CC(CC(C4)C2)C3)c2ccccc21 [compound 3],8.64,9.51,,produced dose-dependent antinociception,produced the typical cannabinoid-like catalepsy and inhibition of locomotion,significantly reduced locomotor activity
O=C(NN1CCCCC1)c1nn(-c2ccccc2)c2cc(Br)ccc12 [compound 11],,7.07,1850,,,
"Cc1c(C(=O)c2cccc3ccccc23)c2cccc3c2n1[C@H](CN1CCOCC1)CO3 [WIN 55212-2, reference compound]",,,,,produced the typical cannabinoid-like catalepsy and inhibition of locomotion,significantly reduced locomotor activity
O=C(Nc1cccc2ccccc12)c1nn(CCCCCl)c2ccccc12 [compound 7],9.57,9.87,,,,
CN1CCCCC1Cn1nc(C(=O)NC23CC4CC(CC(C4)C2)C3)c2ccccc21 (stereo not drawn) [compound 2],7.32,8.06,,,,
CN(C)CCCn1nc(C(=O)NC23CC4CC(CC(C4)C2)C3)c2ccccc21 [compound 6],,7.68,443,,,
CN1CCCCC1Cn1nc(C(=O)Nc2cccc3ccccc23)c2ccccc21 (stereo not drawn) [compound 10],7.82,8.09,,,,
